Measured values from patent US20080045537A1, “Chemical Compounds” (priority 2004, published 2008).

What follows are molecules tested on HIV-1 IIIB (T-tropic, CXCR4 utilizing) (assay: HOS HIV-1 infectivity assay). Conditions: Human immunodeficiency virus 1, IIIB; as determined by the infectivity assay; strain not stated in Table 2; read-out: Activity Level.
Assay type: cell-based
Procedure: Compounds were profiled against two HIV-1 viruses, the M-tropic (CCR5 utilizing) Ba-L strain and the T-tropic (CXCR4 utilizing) IIIB strain. Both viruses were propagated in human peripheral blood lymphocytes. Compounds were tested for there ability to block infection of the HOS cell line (expressing hCXCR4/hCCR5/hCD4/pHIV-LTR-luciferase) by either HIV-1 Ba-L or HIV-1 IIIB. Compound cytotoxicity was also examined in the absence of virus addition.
HOS cells (expressing hCXCR4/hCCR5/hCD4/pHIV-LTR-luciferase) were harvested and diluted in Dulbeccos modified Eagles media supplemented with 2% FCS and non-essential amino acid to a concentration of 60,000 cells/ml. The cells were plated into 96-well plates (100 ul per well) and the plates were placed in a tissue culture incubator (37° C.; 5% CO2/95% air) for a period of 24 h.
Subsequently, 50 ul of the desired drug solution (4 times the final concentration) was added to each well and the plates were returned to the tissue culture incubator (37° C.; 5% CO2/95% air) for 1 h. Following this incubation 50 ul of diluted virus was added to each well (approximately 2 million RLU per well of virus). The plates were returned to the tissue culture incubator (37° C.; 5% CO2/95% air) and were incubated for a further 96 h.
Following this incubation the endpoint for the virally infected cultures was quantified following addition of Steady-Glo Luciferase assay system reagent (Promega, Madison, Wis.). Cell viability or non-infected cultures was measured using a CellTiter-Glo luminescent cell viability assay system (Promega, Madison, Wis.). All luminescent readouts are performed on a Topcount luminescence detector (Packard, Meridien, Conn.).

| Compound | IC50 [nM] |
| --- | --- |
| CN(Cc1nc2cc(C(=O)N3CCN(Cc4ccccc4)CC3)ccc2[nH]1)C1CCCc2cccnc21 (stereo not drawn) [Example 59, N-Methyl-N-[(5-{[4-(phenylmethyl)-1-piperazinyl]carbonyl}-1H-benzimidazol-2-yl)methyl]-5,6,7,8-tetrahydro-8-quinolinamine] | 500 to 10000 |
| CN1CCN(C(=O)c2ccc3[nH]c(CN(C)C4CCCc5cccnc54)nc3c2)CC1 (stereo not drawn) [Example 58, N-Methyl-N-({5-[(4-methyl-1-piperazinyl)carbonyl]-1H-benzimidazol-2-yl}methyl)-5,6,7,8-tetrahydro-8-quinolinamine] | 100 to 500 |
| CC(=O)N1CCN(C(=O)c2cccc3[nH]c(CN(C)C4CCCc5cccnc54)nc23)CC1 (stereo not drawn) [Example 84, N-({4-[(4-Acetyl-1-piperazinyl)carbonyl]-1H-benzimidazol-2-yl}methyl)-N-methyl-5,6,7,8-tetrahydro-8-quinolinamine] | 100 to 500 |
| CN(Cc1nc2cc(C(=O)NCc3ccncc3)ccc2[nH]1)C1CCCc2cccnc21 (stereo not drawn) [Example 40, 2-{[Methyl(5,6,7,8-tetrahydro-8-quinolinyl)amino]methyl}-N-(4-pyridinylmethyl)-1H-benzimidazole-5-carboxamide] | 500 to 10000 |
| CN1CCN(c2cccc3nc(CN(CCCO)[C@H]4CCCc5cccnc54)[nH]c23)CC1 [Example 149, 3-{{[4-(4-Methyl-1-piperazinyl)-1H-benzimidazol-2-yl]methyl}[(8S)-5,6,7,8-tetrahydro-8-quinolinyl]amino}-1-propanol] | < 100 |
| CN(Cc1nc2cccc(N3CCN4CCC[C@@H]4C3)c2[nH]1)[C@H]1CCCc2cccnc21 [Example 141, (8S)—N-({4-[(8aR)-hexahydropyrrolo[1,2-a]pyrazin-2(1H)-yl]-1H-benzimidazol-2-yl}methyl)-N-methyl-5,6,7,8-tetrahydro-8-quinolinamine] | < 100 |
| CN(C)CCN(C)C(=O)c1ccc2[nH]c(CN(C)C3CCCc4cccnc43)nc2c1 (stereo not drawn) [Example 55, N-[2-(Dimethylamino)ethyl]-N-methyl-2-{[methyl(5,6,7,8-tetrahydro-8-quinolinyl)amino]methyl}-1H-benzimidazole-5-carboxamide] | < 100 |
| CCN(CC)CCN1CCN(C(=O)c2ccc3[nH]c(CN(CC)C4CCCc5cccnc54)nc3c2)CC1 (stereo not drawn) [Example 46, N-{[5-({4-[2-(Diethylamino)ethyl]-1-piperazinyl}carbonyl)-1H-benzimidazol-2-yl]methyl}-N-ethyl-5,6,7,8-tetrahydro-8-quinolinamine] | 500 to 10000 |
| CN(Cc1nc2c(NC(=O)CCN3CCCCC3)cccc2[nH]1)C1CCCc2cccnc21 (stereo not drawn) [Example 100, N-(2-{[methyl(5,6,7,8-tetrahydro-8-quinolinyl)amino]methyl}-1H-benzimidazol-4-yl)-3-(1-piperidinyl)propanamide] | 100 to 500 |
| CN1CCC(NC(=O)c2cccc3[nH]c(CN(C)C4CCCc5cccnc54)nc23)CC1 (stereo not drawn) [Example 88, N-(1-methyl-4-piperidinyl)-2-{[methyl(5,6,7,8-tetrahydro-8-quinolinyl)amino]methyl}-1H-benzimidazole-4-carboxamide] | 100 to 500 |
| CN(Cc1nc2c(C(=O)NCc3nc4ccccc4[nH]3)cccc2[nH]1)C1CCCc2cccnc21 (stereo not drawn) [Example 75, N-(1H-Benzimidazol-2-ylmethyl)-2-{[methyl(5,6,7,8-tetrahydro-8-quinolinyl)amino]methyl}-1H-benzimidazole-4-carboxamide] | < 100 |
| CCN(Cc1nc2cccc(N3CCN(C)CC3)c2n1C)[C@H]1CCCc2cccnc21 [Example 167, (8S)—N-Ethyl-N-{[1-methyl-7-(4-methyl-1-piperazinyl)-1H-benzimidazol-2-yl]methyl}-5,6,7,8-tetrahydro-8-quinolinamine] | < 100 |
| CN1CCN(c2cccc3nc(CN(CCO)[C@H]4CCCc5cccnc54)[nH]c23)CC1 [Example 148, 2-{{[4-(4-Methyl-1-piperazinyl)-1H-benzimidazol-2-yl]methyl}[(8S)-5,6,7,8-tetrahydro-8-quinolinyl]amino}ethanol] | < 100 |
| CN(Cc1nc2c(C(=O)N3CCCNCC3)cccc2[nH]1)C1CCCc2cccnc21 (stereo not drawn) [Example 93, N-{[4-(hexahydro-1H-1,4-diazepin-1-ylcarbonyl)-1H-benzimidazol-2-yl]methyl}-N-methyl-5,6,7,8-tetrahydro-8-quinolinamine] | < 100 |
| CC(C)N(Cc1nc2cccc(N3CCN(C)CC3)c2[nH]1)[C@H]1CCCc2cccnc21 [Example 138, (8S)—N-(1-Methylethyl)-N-{[4-(4-methyl-1-piperazinyl)-1H-benzimidazol-2-yl]methyl}-5,6,7,8-tetrahydro-8-quinolinamine] | < 100 |
| CN(Cc1nc2c(NC(=O)c3cccnc3)cccc2[nH]1)C1CCCc2cccnc21 (stereo not drawn) [Example 102, N-(2-{[Methyl(5,6,7,8-tetrahydro-8-quinolinyl)amino]methyl}-1H-benzimidazol-4-yl)-3-pyridinecarboxamide] | 100 to 500 |
| CN(Cc1nc2c(-n3ccnc3)cccc2[nH]1)C1CCCc2cccnc21 (stereo not drawn) [Example 101, N-{[4-(1H-Imidazol-1-yl)-1H-benzimidazol-2-yl]methyl}-N-methyl-5,6,7,8-tetrahydro-8-quinolinamine] | 100 to 500 |
| CN(Cc1nc2cc(C(=O)NCC3CCNCC3)ccc2[nH]1)C1CCCc2cccnc21 (stereo not drawn) [Example 38, 2-{[Methyl(5,6,7,8-tetrahydroquinolin-8-yl)amino]methyl}-N-(piperidin-4-ylmethyl)-1H-benzimidazole-5-carboxamide] | 500 to 10000 |
| CCN(Cc1nc2cccc(N3CCN(C)CC3)c2n1CC)[C@H]1CCCc2cccnc21 [Example 166, (8S)—N-Ethyl-N-{[1-ethyl-7-(4-methyl-1-piperazinyl)-1H-benzimidazol-2-yl]methyl}-5,6,7,8-tetrahydro-8-quinolinamine] | < 100 |

Further lines, results first:

| IC50 [nM] | Compound |
| --- | --- |
| < 100 | CN1CCN(c2cccc3nc(CN(Cc4ccccc4)[C@H]4CCCc5cccnc54)[nH]c23)CC1 [Example 150, (8S)—N-{[4-(4-methyl-1-piperazinyl)-1H-benzimidazol-2-yl]methyl}-N-(phenylmethyl)-5,6,7,8-tetrahydro-8-quinolinamine] |
| < 100 | CN(Cc1nc2c(CCCN)cccc2[nH]1)C1CCCc2cccnc21 (stereo not drawn) [Example 97, N-{[4-(3-aminopropyl)-1H-benzimidazol-2-yl]methyl}-N-methyl-5,6,7,8-tetrahydro-8-quinolinamine] |
| < 100 | CN1CCN(c2cccc3nc(C(C)(C)NC4CCCc5cccnc54)[nH]c23)CC1 (stereo not drawn) [Example 114, N-{1-methyl-1-[4-(4-methyl-1-piperazinyl)-1H-benzimidazol-2-yl]ethyl}-5,6,7,8-tetrahydro-8-quinolinamine] |
| < 100 | CCCN(Cc1nc2cccc(N3CCN(C)CC3)c2[nH]1)[C@@H]1CCCc2cccnc21 [Example 136, (8R)—N-{[4-(4-methyl-1-piperazinyl)-1H-benzimidazol-2-yl]methyl}-N-propyl-5,6,7,8-tetrahydro-8-quinolinamine] |
| < 100 | COc1ccc([C@H](C)N(Cc2nc3cccc(N4CCN(C)CC4)c3[nH]2)[C@H]2CCCc3cccnc32)cc1 [Example 146, (8S)—N-{(1S)-1-[4-(methyloxy)phenyl]ethyl}-N-{[4-(4-methyl-1-piperazinyl)-1H-benzimidazol-2-yl]methyl}-5,6,7,8-tetrahydro-8-quinolinamine] |
| < 100 | CN1CCN(c2cccc3nc(CN(C)C4CCCCc5cccnc54)[nH]c23)CC1 (stereo not drawn) [Example 185, N-methyl-N-{[4-(4-methyl-1-piperazinyl)-1H-benzimidazol-2-yl]methyl}-6,7,8,9-tetrahydro-5H-cyclohepta[b]pyridin-9-amine] |
| < 100 | CNCCN(C)C(=O)c1ccc2[nH]c(CN(C)C3CCCc4cccnc43)nc2c1 (stereo not drawn) [Example 51, N-Methyl-N-[2-(methylamino)ethyl]-2-{[methyl(5,6,7,8-tetrahydro-8-quinolinyl)amino]methyl}-1H-benzimidazole-5-carboxamide] |
| < 100 | CN1CCN(c2cccc3nc(CN(CC4CC4)[C@@H]4CCCc5cccnc54)[nH]c23)CC1 [Example 139, (8R)—N-(Cyclopropylmethyl)-N-{[4-(4-methyl-1-piperazinyl)-1H-benzimidazol-2-yl]methyl}-5,6,7,8-tetrahydro-8-quinolinamine] |
| < 100 | CN(Cc1nc2c(CCCN3CCCC3)cccc2[nH]1)C1CCCc2cccnc21 (stereo not drawn) [Example 95, N-Methyl-N-({4-[3-(1-pyrrolidinyl)propyl]-1H-benzimidazol-2-yl}methyl)-5,6,7,8-tetrahydro-8-quinolinamine] |
| < 100 | CCN(Cc1nc2cccc(N3CCN(C)CC3)c2n1C)C1CCCc2cccnc21 (stereo not drawn) [Example 154, N-Ethyl-N-{[1-methyl-7-(4-methyl-1-piperazinyl)-1H-benzimidazol-2-yl]methyl}-5,6,7,8-tetrahydro-8-quinolinamine] |
| < 100 | CCCN(Cc1nc2cccc(N3CCN(C)CC3)c2[nH]1)[C@H]1CCCc2cccnc21 [Example 137, (8S)—N-{[4-(4-methyl-1-piperazinyl)-1H-benzimidazol-2-yl]methyl}-N-propyl-5,6,7,8-tetrahydro-8-quinolinamine] |
